pKi: −log10 of the molar value.
target: recombinant Mcl-1 (residues 172-327) (Homo sapiens (Human), UniProt Q07820); experiment: Fluorescence polarization anisotropy competition assay (FITC-Bak or FITC-Bim BH3 peptide) with Mcl-1; format: binding; conditions: not given
Sequence (Q07820 172-327): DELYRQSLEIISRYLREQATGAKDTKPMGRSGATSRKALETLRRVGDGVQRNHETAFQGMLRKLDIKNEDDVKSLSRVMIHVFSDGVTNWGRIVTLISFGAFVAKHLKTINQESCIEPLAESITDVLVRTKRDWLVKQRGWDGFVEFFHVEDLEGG

Row | SMILES | pKi
1 | Cc1cc(OCCCc2c(C(=O)NCC(=O)O)[nH]c3ccccc23)cc(C)c1Cl [I-3, (3-(3-(4-chloro-3,5-dimethylphenoxy)propyl)-1H-indole-2-carbonyl)glycine] | 6.00 to 6.30

same assay, conditions: Table 2; Ki bins given in nM; FITC-Bak or FITC-Bim peptide competition; Ki converted from IC50; read-out: Ki for Inhibition of Mcl-1

Row | SMILES | Ki
2 | Cc1ccc(N2CCCn3c(c(CCCOc4cc(C)c(Cl)c(C)c4)c4ccc(Cl)c(-c5c(C)nn(C)c5C)c43)C2=O)cc1C(=O)O [I-98, 5-(8-chloro-11-(3-(4-chloro-3,5-dimethylphenoxy)propyl)-1-oxo-7-(1,3,5-trimethyl-1H-pyrazol-4-yl)-4,5-dihydro-1H-[1,4]diazepino[1,2-a]indol-2(3H)-yl)-2-methylbenzoic acid] | < 50 nM
3 | Cc1cc(OCCCc2c3n(c4c(-c5c(C)nn(C)c5C)c(Cl)ccc24)C[C@@H](C)N(c2cccc(C(=O)O)c2)C3=O)cc(C)c1Cl [I-157, (R)-3-(7-chloro-10-(3-(4-chloro-3,5-dimethylphenoxy)propyl)-3-methyl-1-oxo-6-(1,3,5-trimethyl-1H-pyrazol-4-yl)-3,4-dihydropyrazino[1,2-a]indol-2(1H)-yl)benzoic acid] | < 50 nM
4 | Cc1cc(OCCCc2c(C(=O)NCc3cc(C(=O)O)cc(N4CCc5ccccc5C4)n3)[nH]c3c(-c4c(C)nn(C)c4C)c(Cl)ccc23)cc(C)c1Cl [I-282, 2-((6-chloro-3-(3-(4-chloro-3,5-dimethylphenoxy)propyl)-7-(1,3,5-trimethyl-1H-pyrazol-4-yl)-1H-indole-2-carboxamido)methyl)-6-(3,4-dihydroisoquinolin-2(1H)-yl)isonicotinic acid] | < 50 nM
5 | Cc1cc(OCCCc2c3n(c4c(-c5c(C)nn(C)c5C)c(Cl)ccc24)C[C@H](C)N(Cc2ccc(C(=O)O)cc2)C3=O)cc(C)c1Cl [I-139, (S)-4-((7-chloro-10-(3-(4-chloro-3,5-dimethylphenoxy)propyl)-3-methyl-1-oxo-6-(1,3,5-trimethyl-1H-pyrazol-4-yl)-3,4-dihydropyrazino[1,2-a]indol-2(1H)-yl)methyl)benzoic acid] | < 50 nM
6 | Cc1cc(OCCCc2c(C(=O)NCC(=O)NS(=O)(=O)c3ccccc3)[nH]c3ccccc23)cc(C)c1Cl [I-5, 3-(3-(4-chloro-3,5-dimethylphenoxy)propyl)-N-(2-oxo-2-(phenylsulfonamido)ethyl)-1H-indole-2-carboxamide] | 101 to 299 nM
7 | Cc1cc(OCCCc2c(C(=O)NCCC(=O)NS(=O)(=O)c3ccc4ccccc4c3)[nH]c3ccccc23)cc(C)c1Cl [I-16, 3-(3-(4-chloro-3,5-dimethylphenoxy)propyl)-N-(3-(naphthalene-2-sulfonamido)-3-oxopropyl)-1H-indole-2-carboxamide] | 101 to 299 nM
8 | Cc1cc(OCCCc2c(C(=O)NCc3cccc(C(=O)NS(=O)(=O)c4ccc([N+](=O)[O-])cc4)c3)[nH]c3c(-c4c(C)n[nH]c4C)cccc23)cc(C)c1Cl [I-27, 3-(3-(4-chloro-3,5-dimethylphenoxy)propyl)-7-(3,5-dimethyl-1H-pyrazol-4-yl)-N-(3-(((4-nitrophenyl)sulfonyl)carbamoyl)benzyl)-1H-indole-2-carboxamide] | < 50 nM
9 | Cc1cc(OCCCc2c3n(c4c(-c5c(C)nn(CC(=O)O)c5C)c(Cl)ccc24)CCCNC3=O)cc(C)c1Cl [I-295, 2-(4-(8-chloro-11-(3-(4-chloro-3,5-dimethylphenoxy)propyl)-1-oxo-2,3,4,5-tetrahydro-1H-[1,4]diazepino[1,2-a]indol-7-yl)-3,5-dimethyl-1H-pyrazol-1-yl)acetic acid] | < 50 nM
10 | Cc1cc(C(=O)O)ccc1N1CCCn2c(c(CCCOc3cc(C)c(Cl)c(C)c3)c3ccc(Cl)c(-c4c(C)nn(C)c4C)c32)C1=O [I-97, 4-(8-chloro-11-(3-(4-chloro-3,5-dimethylphenoxy)propyl)-1-oxo-7-(1,3,5-trimethyl-1H-pyrazol-4-yl)-4,5-dihydro-1H-[1,4]diazepino[1,2-a]indol-2(3H)-yl)-3-methylbenzoic acid] | < 50 nM
11 | Cc1nn(C)c(C)c1-c1cccc2c(CCCOc3cccc4ccccc34)c(C(=O)Nc3cncc(C(=O)O)c3)[nH]c12 [I-194, 5-(3-(3-(naphthalen-1-yloxy)propyl)-7-(1,3,5-trimethyl-1H-pyrazol-4-yl)-1H-indole-2-carboxamido)nicotinic acid] | 51 to 100 nM
12 | Cc1cc(OCCCc2c(C(=O)Nc3cc(C(=O)O)cc(N4CCOCC4)c3)[nH]c3c(-c4c(C)nn(C)c4C)c(Cl)ccc23)cc(C)c1Cl [I-208, 3-(6-chloro-3-(3-(4-chloro-3,5-dimethylphenoxy)propyl)-7-(1,3,5-trimethyl-1H-pyrazol-4-yl)-1H-indole-2-carboxamido)-5-morpholinobenzoic acid] | < 50 nM
13 | Cc1cc(OCCCc2c3n(c4c(-c5c(C)nn(C)c5C)c(Cl)ccc24)CCCN(c2ccc4ccn(C)c4c2)C3=O)cc(C)c1Cl [I-248, 8-chloro-1-(3-(4-chloro-3,5-dimethylphenoxy)propyl)-2-(1-methyl-1H-indol-6-yl)-7-(1,3,5-trimethyl-1H-pyrazol-4-yl)-2,3,4,5-tetrahydro-1H-[1,4]diazepino[1,2-a]indol-1-one] | < 50 nM
14 | Cc1cc(OCCCc2c3n(c4c(-c5c(C)nn(C)c5C)c(Cl)ccc24)[C@H](C)CN(Cc2cccc(C(=O)O)c2)C3=O)cc(C)c1Cl [I-155, (R)-3-((7-chloro-10-(3-(4-chloro-3,5-dimethylphenoxy)propyl)-4-methyl-1-oxo-6-(1,3,5-trimethyl-1H-pyrazol-4-yl)-3,4-dihydropyrazino[1,2-a]indol-2(1H)-yl)methyl)benzoic acid] | < 50 nM
15 | Cc1cc(OCCCc2c(C(=O)NCc3cccc(C(=O)NS(=O)(=O)c4ccccc4C#N)c3)[nH]c3c(-c4c(C)n[nH]c4C)cccc23)cc(C)c1Cl [I-26, 3-(3-(4-chloro-3,5-dimethylphenoxy)propyl)-N-(3-(((2-cyanophenyl)sulfonyl)carbamoyl)benzyl)-7-(3,5-dimethyl-1H-pyrazol-4-yl)-1H-indole-2-carboxamide] | < 50 nM
16 | Cc1cc(OCCCc2c3n(c4c(-c5c(C)nn(C)c5C)c(Cl)ccc24)CCCN(c2ccc(C#N)cc2)C3=O)cc(C)c1Cl [I-356, 4-(8-chloro-11-(3-(4-chloro-3,5-dimethylphenoxy)propyl)-1-oxo-7-(1,3,5-trimethyl-1H-pyrazol-4-yl)-4,5-dihydro-1H-[1,4]diazepino[1,2-a]indol-2(3H)-yl)benzonitrile] | 51 to 100 nM
17 | Cc1cc(OCCCc2c3n(c4c(-c5c(C)nn(C)c5C)c(Cl)ccc24)CCCN(C2SC(=O)NC2C(=O)O)C3=O)cc(C)c1Cl (stereo not drawn) [I-346, 5-(8-chloro-11-(3-(4-chloro-3,5-dimethylphenoxy)propyl)-1-oxo-7-(1,3,5-trimethyl-1H-pyrazol-4-yl)-4,5-dihydro-1H-[1,4]diazepino[1,2-a]indol-2(3H)-yl)-2-oxothiazolidine-4-carboxylic acid] | < 50 nM
18 | Cc1cc(OCCCc2c3n(c4c(-c5c(C)nn(C)c5C)c(Cl)ccc24)CCCN(c2scnc2C(=O)O)C3=O)cc(C)c1Cl [I-350, 5-(8-chloro-11-(3-(4-chloro-3,5-dimethylphenoxy)propyl)-1-oxo-7-(1,3,5-trimethyl-1H-pyrazol-4-yl)-4,5-dihydro-1H-[1,4]diazepino[1,2-a]indol-2(3H)-yl)thiazole-4-carboxylic acid] | < 50 nM
19 | Cc1cc(OCCCc2c(C(=O)NCCC(=O)NS(=O)(=O)c3cccc([N+](=O)[O-])c3)[nH]c3ccccc23)cc(C)c1Cl [I-21, 3-(3-(4-chloro-3,5-dimethylphenoxy)propyl)-N-(3-((3-nitrophenyl)sulfonamido)-3-oxopropyl)-1H-indole-2-carboxamide] | 101 to 299 nM
20 | Cc1cc(OCCCc2c3n(c4c(-c5c(C)nn(C)c5C)c(Cl)ccc24)CCCN(c2cccc(C(=O)NS(=O)(=O)C4CC4)c2)C3=O)cc(C)c1Cl [I-369, 3-(8-chloro-11-(3-(4-chloro-3,5-dimethylphenoxy)propyl)-1-oxo-7-(1,3,5-trimethyl-1H-pyrazol-4-yl)-4,5-dihydro-H-[1,4]diazepino[1,2-a]indol-2(3H)-yl)-N-(cyclopropylsulfonyl)benzamide] | < 50 nM
21 | Cc1cc(OCCCc2c(C(=O)N(Cc3ccc(C(F)(F)F)cc3)c3ccc(S(N)(=O)=O)cn3)[nH]c3ccccc23)cc(C)c1Cl [I-49, 3-(3-(4-chloro-3,5-dimethylphenoxy)propyl)-N-(5-sulfamoylpyridin-2-yl)-N-(4-(trifluoromethyl)benzyl)-1H-indole-2-carboxamide] | 101 to 299 nM
22 | Cc1cc(OCCCc2c(C(=O)N[C@H]3CCC[C@H]3C(=O)O)[nH]c3c(-c4c(C)nn(C)c4C)c(Cl)ccc23)cc(C)c1Cl [I-334, (1R,2S)-2-(6-chloro-3-(3-(4-chloro-3,5-dimethylphenoxy)propyl)-7-(1,3,5-trimethyl-1H-pyrazol-4-yl)-1H-indole-2-carboxamido)cyclopentane-1-carboxylic acid] | < 50 nM
23 | Cc1cc(OCCCc2c(C(=O)NCc3ccc(C(=O)O)o3)n(C)c3c(-c4c(C)nn(C)c4C)cccc23)cc(C)c1Cl [I-66, 5-((3-(3-(4-chloro-3,5-dimethylphenoxy)propyl)-1-methyl-7-(1,3,5-trimethyl-1H-pyrazol-4-yl)-1H-indole-2-carboxamido)methyl)furan-2-carboxylic acid] | < 50 nM

same assay, conditions: Table 2; Ki bins given in μM; FITC-Bak or FITC-Bim peptide competition; Ki converted from IC50; read-out: Ki for Inhibition of Mcl-1

Row | SMILES | Ki
24 | CCOC(=O)c1ccc(CNC(=O)c2[nH]c3c(-c4c(C)n[nH]c4C)cccc3c2CCCOc2cc(C)c(Cl)c(C)c2)o1 [I-61, ethyl 5-((3-(3-(4-chloro-3,5-dimethylphenoxy)propyl)-7-(3,5-dimethyl-1H-pyrazol-4-yl)-1H-indole-2-carboxamido)methyl)furan-2-carboxylate] | 10000 to 50000 nM
25 | CCOC(=O)CCNC(=O)c1[nH]c2ccccc2c1CCCOc1cc(C)c(Cl)c(C)c1 [I-10, ethyl 3-(3-(3-(4-chloro-3,5-dimethylphenoxy)propyl)-1H-indole-2-carboxamido)propanoate] | 10000 to 50000 nM
26 | CCOC(=O)c1ccc(CNC(=O)c2[nH]c3c(-c4c(C)nn(C)c4C)cccc3c2CCCOc2cc(C)c(Cl)c(C)c2)o1 [I-266, ethyl 5-((3-(3-(4-chloro-3,5-dimethylphenoxy)propyl)-7-(1,3,5-trimethyl-1H-pyrazol-4-yl)-1H-indole-2-carboxamido)methyl)furan-2-carboxylate] | 10000 to 50000 nM
27 | Cc1cc(OCCCc2c(C(=O)NCc3ccc(C(=O)O)o3)n(C)c3c(-c4c(C)nn(C)c4C)cccc23)cc(C)c1Cl [I-66, 5-((3-(3-(4-chloro-3,5-dimethylphenoxy)propyl)-1-methyl-7-(1,3,5-trimethyl-1H-pyrazol-4-yl)-1H-indole-2-carboxamido)methyl)furan-2-carboxylic acid] | 10000 to 50000 nM

Source: patent publication US10533010B2, “Substituted indole Mcl-1 inhibitors” (Vanderbilt University, priority 2014, dated 2020)
